Measurements reported in patent US20030166723A1, “Ige production inhibitors” (priority 2000, published 2003).
Like-named read-outs stand apart in the source and are kept apart here.

Assays:
NC/Nga mice = assay: Disease score of NC/Nga mice (AD model), oral administration; format: in vivo, mouse
Excerpt: As a model animal, NC/Nga mouse was used. The NC/Nga mouse is an inbred mouse established in 1957, which is originated from “[…]” mouse, a pet mouse. Long since, it has been known that this mouse is sensitive to X-rays and to ovalbumin-caused anaphylactic shocks. […] Such AD-like phenotype occurs in the ordinary environment but not in a SPF (specific pathogen-free) environment where neither microorganism nor parasite exists, so that the onset of the disease can be controlled. In this view, the mouse was used as a disease model of atopic dermatitis in carrying out the present invention As the model animal, 5-week-old male NC/Nga mice bred in SPF environment, presenting neither dermatitis-like feature nor hyperIgE syndrome were used. To these mice, GLA ethyl ester (degree of purification of 95.98%: manufactured by Idemitsu Material Co., Ltd.) was administered by a stomach tube method in a dosage of 50 mg/individual once every other day starting from 5-week-old to obtain a GLA-administered group composed of 6 animals. On the other hand, as a control, PBS (phosphate buffered saline) instead of GLA ethyl ester was likewise administered in a dosage of 50 μg/individual to obtain a control group composed of 6 animals. In each week from the onset of administration (5 weeks old) up to 19 weeks old, the disease scores of the above-mentioned mice were converted into points according to the method of Matsuda et al. (Int. Immunol., 9, 461-466, 1997). A concrete method is described below. The following 5 items from A to E were scored by a three point full mark scoring system of 0 (none), 1 (slightly aggravated), 2 (moderately aggravated), and 3 (considerably aggravated). In total, 15 points make a full score. […] B (erythema, bleeding); Bleeding from ears and face and erythema on the back of ears were scored. C (edema): Mainly, degree of swelling of ears was scored. D (abrasions, erosion): Abrasions around the face, on the back of ears, and at around the base of arm were scored. E (dryness): Degree of dry skin from the back to the face was scored. As the model animal, 5-week-old male NC/Nga mice bred in SPF environment, presenting neither dermatitis-like feature nor hyperIgE syndrome were used. The animals were divided into each group composed of 10 animals. For the GLA-administered group, GLA ethyl ester (degree of purification of 95.98%: manufactured by Idemitsu Material Co., Ltd.) was administered by a stomach tube method in a dosage of 0.1 mg/individual once every other day. Administration of GLA was performed by using, olive oil containing little essential fatty acid which was added to 0.1 mg of GLA ethyl ester to make 50 μl. For the control group, 50 μl of olive oil alone was likewise administered. The disease score of mice in these groups were calculated every week in the same manner as in Example 1 and total IgE amount in plasma was measured once every other week.

IgE = conditions: for total IgE amount in plasma compared with control group: stomach tube
Protocol: As the model animal, 5-week-old male NC/Nga mice bred in SPF environment, presenting neither dermatitis-like feature nor hyperIgE syndrome were used. To these mice, GLA ethyl ester (degree of purification of 95.98%: manufactured by Idemitsu Material Co., Ltd.) was administered by a stomach tube method in a dosage of 50 mg/individual once every other day starting from 5-week-old to obtain a GLA-administered group composed of 6 animals. On the other hand, as a control, PBS (phosphate buffered saline) instead of GLA ethyl ester was likewise administered in a dosage of 50 μg/individual to obtain a control group composed of 6 animals.
In addition, blood was collected from the above-mentioned mice at the time of starting the administration (5 weeks old), and at 7, 9, and 11 weeks old and was centrifuged at 1,500 rpm for 10 minutes to obtain plasma. Then, total IgE amount in the plasma was measured by a sandwich ELISA method. A concrete method thereof is described below.
Rat anti-murine IgE monoclonal antibody (manufactured by PharMingen Co.) diluted to […] with coating buffer (0.1 M NaHCO3, 0.5 M NaCl, pH 8.5) was added to each well of a plate (NUNC-IMMUNOPLATE, manufactured by NUNC Inc., A/S) in an amount of 50 μl, and left to stand at 4° C. overnight or at 37° C. for 3 hours, followed by washing the wells with PBS/Tween (PBS, 0.05% Tween-20, pH 7.5) 3 times.
To each well, 200 μl of blocking buffer (PBS containing 2% skimmed milk) was added and incubated at 37° C. for 3 hours, followed by washing the wells with PBS/Tween 3 times.
Then, the above-mentioned murine plasma was diluted 100 folds with dilution buffer (PBS, 2% skimmed milk, 0.25% SDS) to prepare a sample for measurement. Furthermore, murine IgE standard (manufactured by PharmMingen Co.) was diluted with dilution buffer to prepare a standard for measurement.
The samples for measurement and standard were added to each well in amounts of 50 μl/well and incubated at 37° C. for 3 hours, followed by washing the wells with PBS/Tween 3 times.
Biotinylated rat anti-murine IgE antibody (manufactured by PharmMingen Co.) diluted to 2 μg/ml with dilution buffer was added to each well in an amount of 50 μl and incubated at 37° C. for about 3 hours, followed by washing the wells with PBS/Tween 6 times.
Furthermore, alkaline phosphatase-labeled Streptoavidin (manufactured by BioSource, Inc.) diluted to 1.000 folds with dilution buffer was added to the wells in an amount of 50 μl/well and incubated at 37° C. for 1 hour, followed by washing the wells with PBS/Tween 6 times.
As the model animal, 5-week-old male NC/Nga mice bred in SPF environment, presenting neither dermatitis-like feature nor hyperIgE syndrome were used. The animals were divided into each group composed of 10 animals. For the GLA-administered group, GLA ethyl ester (degree of purification of 95.98%: manufactured by Idemitsu Material Co., Ltd.) was administered by a stomach tube method in a dosage of 0.1 mg/individual once every other day. Administration of GLA was performed by using, olive oil containing little essential fatty acid which was added to 0.1 mg of GLA ethyl ester to make 50 μl. For the control group, 50 μl of olive oil alone was likewise administered.
The disease score of mice in these groups were calculated every week in the same manner as in Example 1 and total IgE amount in plasma was measured once every other week.

[1] = tested on: spleen cells of NC/Nga mice
Excerpt: In this example, the effect of GLA to inhibit IgE production in vitro was studied by an in vitro class switch induction system using spleen cells of the mice. First, spleen cells were collected from NC/Nga mice by the following method. An 8-week-old NC/Nga mouse bred in SPF environment, presenting neither dermatitis-like feature nor hyperIgE syndrome was sacrificed by dislocation fracture of the cervical vertebrae and the spleen was extracted in a sterile condition. The extracted spleen was placed in RPMI-1640 medium (about 3 ml) in a dish, and separated into individual cells with a sterilized pincette. The separated cells were placed in a 15-ml Falcon tube and the membrane of the spleen was removed. Then, the cells suspended in the medium were centrifuged at 1,500 rpm for 5 minutes to recover only the cells. Subsequently, to remove erythrocytes, the recovered cells were suspended in 10 ml of sterilized lysis buffer at 4° C. to cause hemolysis, followed by washing twice with sterilized PBS produced by Milli-Q at 4° C. to collect spleen cells. A portion of the obtained spleen cells was stained with Trypan Blue (Trypan Blue Stain 0.4%: manufactured by LIFE TECHNOLOGIES, INC.) and counted on a hemacytometer. Then, measurement of IgE amount in the culture supernatant in a class switch induction system was performed by the following procedure. Based on the number of cells counted by the above-mentioned method, the cells were inoculated on a plate (96-well cell culture microtest plate, with flat bottom, low evaporation type, made of polystyrene with a lid: manufactured by FALCON CO.) to a concentration of 2×10^5 cells/ml per well. The medium used here contained cytokine IL-4 (100 U/ml) and LPS (10 μg/ml) as stimulants for the IgE class switch induction. To observe the influences of GLA before, during, or after the stimulation for class switch, GLA was added to the media in various concentrations (0, 10, 20, 40, 60, 80, 120, 160 μg/ml) after 0 hour (at the start of culture), 48 hours, or 72 hours from the start. Here, the addition of GLA was performed by diluting it with ethanol to appropriate concentrations and making the final concentration of ethanol to be 0.1%. All the cultures were performed at 37° C. in a 5%-CO2 incubator and the cultured supernatants were recovered after 7 days (after 168 hours). The IgE amounts thereof were measured by a sandwich ELISA method.

[2] = tested on: spleen cells of NC/Nga mice; conditions: BrdU 60-72 hours
Protocol: Here, the addition of GLA was performed by diluting it with ethanol to appropriate concentrations and making the final concentration of ethanol to be 0.1%.

[3] = oral administration of olive oil containing 0.1 mg GLA ethyl ester

| Structure (SMILES) | average disease score compared with control group (NC/Nga mice; GLA ethyl ester 0.1 mg/individual in olive oil, stomach tube, once every other day, vs olive oil control, week 9 or thereafter) | disease score compared with control group (NC/Nga mice; GLA ethyl ester 0.1 mg/individual in olive oil, stomach tube, once every other day, vs olive oil control, weeks 15 to 17) | disease score compared with control group (NC/Nga mice; GLA ethyl ester 50 mg/individual, stomach tube, once every other day from 5 weeks old, vs PBS control, week 11 and weeks 13 to 19) | increase of disease score with time (NC/Nga mice; GLA ethyl ester 50 mg/individual, stomach tube, once every other day, at week 11 or thereafter) | inhibition of IgE production in vivo (IgE; 2 month-long oral administration to AD-suffering NC/Nga mice with hyperIgE syndrome) | increase of total IgE amount in plasma with time (IgE; GLA ethyl ester 0.1 mg/individual in olive oil, once every other day, at week 13 and thereafter) | total IgE amount in plasma compared with control group (IgE; GLA ethyl ester 0.1 mg/individual in olive oil, once every other day, vs olive oil control, week 13 to week 19) | total IgE amount in plasma compared with control group (IgE; GLA ethyl ester 50 mg/individual, once every other day, vs PBS control, each measurement period (weeks 5, 7, 9, 11)) | total IgE amount in plasma compared with control group (IgE; GLA ethyl ester 50 mg/individual, once every other day, vs PBS control, week 11) | amount of totally produced IgE compared to no-GLA-added lot ([1]; GLA 40 μg/ml added after 0 hour of culture) | degree of decrease in total IgE amount produced versus decrease in cell proliferation ([1]; GLA 20 to 60 μμg/ml added after 0 hour) | inhibition of IgE production, dependence on concentration ([1]; GLA added after 0 hour of culture, 0-160 μg/ml, supernatant after 7 days) | inhibition of IgE production (IgE amount in culture supernatant) ([1]; GLA added after 0 hour of culture, 120 μg/ml, supernatant after 7 days) | inhibition of IgE production (IgE amount in culture supernatant) ([1]; GLA added after 48 hours of culture, above 120 μg/ml) | inhibition of IgE production (IgE amount in culture supernatant) ([1]; GLA added after 48 hours of culture, up to 80 μg/ml) | inhibition of IgE production (IgE amount in culture supernatant) ([1]; GLA added after 72 hours of culture, at the added concentrations measured (10-160 μg/ml)) | cell proliferation potency with increase of added GLA concentration ([2]; GLA 0-160 μg/ml added after 0 hour) | cell proliferation compared to no-GLA-added lot ([2]; GLA 40 μg/ml added after 0 hour) | disease score (summary of Example 2) (NC/Nga mice; [3]) | IgE amount (summary of Example 2) (IgE; [3]) |
| --- | --- | --- | --- | --- | --- | --- | --- | --- | --- | --- | --- | --- | --- | --- | --- | --- | --- | --- | --- | --- |
| CCCCC/C=C\C/C=C\C/C=C\CCCCC(=O)O [GLA, γ-linolenic acid] | low average scores | significantly low scores | significant inhibition of the disease score | no significant increase was observed | no inhibition of IgE production | no significant increase was observed | significantly low values | low in total IgE amount | significantly low | about one tenth | significantly greater | inhibits IgE production dose-dependently | complete inhibition of the IgE production | not complete but significant inhibition | no IgE inhibition was observed | no significant inhibition of IgE production was observed | a decrease in the cell proliferation potency was observed | did not substantially decrease | – | – |
| CCCCC/C=C\C/C=C\C/C=C\CCCCC(=O)OCC [GLA ethyl ester] | – | – | – | – | – | – | – | – | – | – | – | – | – | – | – | – | – | – | significantly low | significantly low |
